{"source": "patent US20140220094A1", "about": "“METHODS AND COMPOSITIONS FOR A LAPAROSCOPIC SURGERY” (Prelief Inc., priority 2009, published 2014)", "tested_on": "laparoscopic ports", "test": "Laparoscopic cutaneous studies: treated vs untreated laparoscopic port sites", "format": "in vivo, human", "conditions": "another patient, 10 days after the treatment", "description": "Cellerity® 10 topical lotion has been used in single patient multiple sites laparoscopic procedure studies. The studies compared healing time, severity of scar formation and inflammation at laparoscopic ports with and without CGP treatment.\nThe treatment was started within 24 hours after the laparoscopic surgery. The patient was instructed to allow the applied lotion to dry completely before applying their clothes and not to wash the treatment area for two hours after the application. This procedure was performed twice a day for three full weeks. […] The untreated ports were grossly inflamed, had tissue necrosis at the incision site and desquamation of epithelium. It also remained inflamed and the staple sites were still prominent and erythematous. At the incision line, a glassy layer of fibroblastic scar tissue was present.\nSteri-Strips to the left side of the incisions, and leaving the midline left untreated. […] The untreated midline scar remained as inflamed and delayed in the healing process by 3-4 weeks, because the inflamed situation must resolve before the healing can occur. That delay appeared to have allowed more fibroblastic growth in the untreated scar, than was present on the treated scars."}
{"substance": "calcium glycerophosphate [CGP]", "values": [{"measurement": "edematous changes vs untreated midline incision", "setting": "left and right sides treated", "result": "no edematous changes"}, {"measurement": "erythema vs untreated midline incision", "setting": "left and right sides treated", "result": "less erythema"}, {"measurement": "inflammation vs untreated midline incision", "setting": "left and right sides treated", "result": "substantially less inflammation"}, {"measurement": "difference between direct application (right side) and application through Steri-Strips (left side)", "setting": "treatment started 24 hours after surgery", "result": "no difference"}]}
